Assay results as given in patent US5053424A, “2-(N-acyl)amino-6,7-dimethoxy tetralines, and pharmaceutical compositions having antihypertensive activity containing same” (Sigma-Tau Industrie Farmaceutiche Riunite S.p.A., priority 1989, dated 1991).
Where a name gives a salt, the structure may show the parent alone. Read-outs that look alike come from different tables or passages of the source.

Tests used:
Normotensive cats = assay: Measure of arterial pressure in cats (hypotensive effect in normotensive cats); assay type: in vivo; conditions: via crural vein; for EFFECT DURATION (hypotension in normotensive cats): key: S: short; A: average; L: long
Procedure: (a) Measure of arterial pressure in cats.
Normotensive cats of either sex weighing 2.5-3.5 kgs were used in this test.
The animals fasted for 18 hours were anesthetized with Na Nembutal (30 mg/kg) and ethyl urethane (300 mg/kg i.p.). The crural vein and artery of the animals were cannulated, the former for administering the compounds, the latter for monitoring the arterial pressure. The arterial pressure was measured via a mercury gauge connected to a rotating kymograph.
The compounds were dissolved in sterile 0.9% saline and administered at physiological pH in a 0.5 ml/kg volume.

Tolerability in mice = assay: Tolerability in mice; parameters: species or system mice (male albino Swiss); conditions: mouse, in vivo, read-out: TOLERABILITY dose
Procedure: Male albino Swiss mice weighing 22-24 g were used in this test.
One group of animals (4/dose) which had been kept fasting for 18 hours was orally administered the compounds dissolved in twice distilled water. The same compounds dissolved in saline at pH=7 were intravenously injected in a further group of animals which had free access to food and drinking water. All of the animals were monitored for 7 days.

[1] = LD50 in mice (Weil's method); conditions: mouse, in vivo; intravenous route, male Albino Swiss mice
Procedure: LD50 was assessed according to the Carrol S. WEIL's method (Biometrics, pages […] (1952)) on male Albino Swiss mice weighing 22-24 g. The compounds dissolved in […] saline solution were administered via the intravenous route.

SHR hypertensive rats = assay: Non-invasive measure of arterial pressure in genetically hypertensive rats (SHR); assay type: in vivo, rats (male SHR)
Procedure: (b) Non-invasive measure of arterial pressure in genetically hypertensive rats.
Male SHR rats (Charles River) of 3-4 months were used in this test. The compounds listed were dissolved in either 0.9% saline or twice distilled water and administered via the oral route or i.p. (50-100 mg/5 ml/kg).
The animals, housed in individual cages at 23° C. and 60% humidity, had free access to food and drinking water. A BP recorder (Letica) equipped with a two-way polygraph was used. The systolic and diastolic pressure and the heart rate were recorded. The animals, a few days before the test began, were accustomed to be constrained on a heating plate (at 38° C.±1° C.) for 20 minutes).
During the pre-tests, the assessments were made at time 0 (8^30 -9^30 a.m.) and after 1, 2 and 4 hours.
Every assessment was the average of 3 measures and the maximum residence time of the animal in the thermostatized chamber (for the whole test duration) was 40 minutes.
Student's "t" test was used for assessing the difference with respect to the control group and its own 0 time.

[2] = iv, e.p. (head), intravenously injected in saline pH 7, monitored 7 days
[3] = os (oral), fasted mice, monitored 7 days

Row | Compound | HYPOTENSIVE EFFECT IN NORMOTENSIVE CATS, hypotension (Normotensive cats; dose 1-4 mg/kg) | MTD at 168 h (Tolerability in mice; [2]) | MTD at 168 h (Tolerability in mice; [3]) | LD50 [1] | EFFECT DURATION (hypotension in normotensive cats) (Normotensive cats; dose 2 mg/kg) | other results
1 | COc1cc2c(cc1OC)CC(NC(=O)C(N)CCSC)CC2 (stereo not shown) [ST 581, 2-N-methionylamino-6,7-dimethoxy tetraline hydrochloride] | 0 mm Hg | > 50 mg/kg | > 50 mg/kg | 74 mg/kg | – | –
2 | CCN(C(=O)[C@H](C)NC(=O)[C@@H](N)Cc1c[nH]c2ccccc12)C1CCc2cc(OC)c(OC)cc2C1 (stereo partly shown) [ST 604, 2-(N-ethyl,N-tryptophylalanyl)amino-6,7-dimethoxy tetraline hydrochloride] | 0 mm Hg | > 50 mg/kg | > 50 mg/kg | 85 mg/kg | – | –
3 | COc1cc2c(cc1OC)CC(NC(=O)[C@H](C)NC(=O)[C@@H](N)Cc1ccc(O)cc1)CC2.Cl (stereo partly shown) [ST 605, 2-(N-tyrosylalanyl)amino-6,7-dimethoxy tetraline hydrochloride] | – | > 50 mg/kg | > 50 mg/kg | 72.3 mg/kg | S | HYPOTENSIVE EFFECT IN NORMOTENSIVE CATS, hypotension (Normotensive cats; dose 1 mg/kg): 0 mm Hg; ANTIHYPERTENSIVE EFFECT IN SHR HYPERTENSIVE RATS (SHR hypertensive rats; 100 mg/kg e.p., 1st h): -40 mm Hg; ANTIHYPERTENSIVE EFFECT IN SHR HYPERTENSIVE RATS (SHR hypertensive rats; 100 mg/kg e.p., 2nd h): -38 mm Hg; ANTIHYPERTENSIVE EFFECT IN SHR HYPERTENSIVE RATS (SHR hypertensive rats; 100 mg/kg e.p., 4th h): -29 mm Hg; ANTIHYPERTENSIVE EFFECT IN SHR HYPERTENSIVE RATS (SHR hypertensive rats; 100 mg/kg os, single administration (*), 2nd h): -28 mm Hg; ANTIHYPERTENSIVE EFFECT IN SHR HYPERTENSIVE RATS (SHR hypertensive rats; 100 mg/kg os, single administration (*), 4th h): -31 mm Hg; ANTIHYPERTENSIVE EFFECT IN SHR HYPERTENSIVE RATS (SHR hypertensive rats; repeated administration (5 days) (**), dose column "--" below 100 os, 2nd h): -35 mm Hg; ANTIHYPERTENSIVE EFFECT IN SHR HYPERTENSIVE RATS (SHR hypertensive rats; repeated administration (5 days) (**), dose column "--" below 100 os, 4th h): -17 mm Hg
4 | COc1cc2c(cc1OC)CC(NC(=O)[C@H](C)NC(=O)[C@@H](N)CC(C)C)CC2.Cl (stereo partly shown) [ST 584, 2-(N-leucylalanyl)amino-6,7-dimethoxy tetraline hydrochloride] | – | > 50 mg/kg | > 50 mg/kg | 167 mg/kg | – | ANTIHYPERTENSIVE EFFECT IN SHR HYPERTENSIVE RATS (SHR hypertensive rats; dose "10C" [sic] mg/kg os, 1st h): -12 mm Hg; ANTIHYPERTENSIVE EFFECT IN SHR HYPERTENSIVE RATS (SHR hypertensive rats; dose "10C" [sic] mg/kg os, 2nd h): 0 mm Hg; ANTIHYPERTENSIVE EFFECT IN SHR HYPERTENSIVE RATS (SHR hypertensive rats; dose "10C" [sic] mg/kg os, 4th h): 0 mm Hg
5 | COc1cc2c(cc1OC)CC(NC(=O)[C@H](C)NC(=O)[C@@H](N)CCSC)CC2.Cl (stereo partly shown) [ST 586, 2-(N-methionylalanyl)amino-6,7-dimethoxy tetraline hydrochloride] | – | > 50 mg/kg | > 50 mg/kg | 229 mg/kg | – | HYPOTENSIVE EFFECT IN NORMOTENSIVE CATS, hypotension (Normotensive cats; dose 2 mg/kg): 0 mm Hg; EFFECT DURATION (hypotension in normotensive cats) (Normotensive cats; dose 4 mg/kg): S
6 | COc1cc2c(cc1OC)CC(NC(=O)C(N)Cc1c[nH]c3ccccc13)CC2 (stereo not shown) [ST 580, 2-N-tryptophylamino-6,7-dimethoxy tetraline hydrochloride] | 0 mm Hg | > 50 mg/kg | > 50 mg/kg | 66.7 mg/kg | – | –
7 | CCN(C(=O)[C@H](C)NC(=O)[C@@H](N)CCSC)C1CCc2cc(OC)c(OC)cc2C1 (stereo partly shown) [ST 606, 2-(N-ethyl,N-methionylalanyl)amino-6,7-dimethoxy tetraline hydrochloride] | – | > 50 mg/kg | > 50 mg/kg | 150 mg/kg | S | EFFECT DURATION (hypotension in normotensive cats) (Normotensive cats; dose 1 mg/kg): S; EFFECT DURATION (hypotension in normotensive cats) (Normotensive cats; dose 4 mg/kg): S
8 | COc1cc2c(cc1OC)CC(NC(=O)[C@H](C)NC(=O)[C@@H](N)Cc1c[nH]c3ccccc13)CC2 (stereo partly shown) [ST 585, 2-(N-tryptophylalanyl)amino-6,7-dimethoxy tetraline hydrochloride] | – | > 50 mg/kg | > 50 mg/kg | 115 mg/kg | – | HYPOTENSIVE EFFECT IN NORMOTENSIVE CATS, hypotension (Normotensive cats; dose 4 mg/kg): 0 mm Hg; EFFECT DURATION (hypotension in normotensive cats) (Normotensive cats; dose 10 mg/kg): S
9 | COc1cc2c(cc1OC)CC(NC(=O)CN)CC2 (stereo not shown) [ST 582, 2-N-glycylamino-6,7-dimethoxy tetraline hydrochloride] | – | > 50 mg/kg | > 50 mg/kg | 72.3 mg/kg | – | EFFECT DURATION (hypotension in normotensive cats) (Normotensive cats; dose 10 mg/kg): S; ANTIHYPERTENSIVE EFFECT IN SHR HYPERTENSIVE RATS (SHR hypertensive rats; 50 mg/kg i.p., 1st h): -37 mm Hg; ANTIHYPERTENSIVE EFFECT IN SHR HYPERTENSIVE RATS (SHR hypertensive rats; 50 mg/kg i.p., 2nd h): -27 mm Hg; ANTIHYPERTENSIVE EFFECT IN SHR HYPERTENSIVE RATS (SHR hypertensive rats; 50 mg/kg i.p., 4th h): 0 mm Hg
10 | COc1cc2c(cc1OC)CC(NC(=O)C(N)Cc1ccc(O)cc1)CC2 (stereo not shown) [ST 589, 2-N-tyrosyl-6,7-dimethoxy tetraline hydrochloride] | – | > 50 mg/kg | > 50 mg/kg | 218 mg/kg | S | EFFECT DURATION (hypotension in normotensive cats) (Normotensive cats; dose 1 mg/kg): S; ANTIHYPERTENSIVE EFFECT IN SHR HYPERTENSIVE RATS (SHR hypertensive rats; 100 mg/kg os, 1st h): -26 mm Hg; ANTIHYPERTENSIVE EFFECT IN SHR HYPERTENSIVE RATS (SHR hypertensive rats; 100 mg/kg os, 2nd h): -20 mm Hg; ANTIHYPERTENSIVE EFFECT IN SHR HYPERTENSIVE RATS (SHR hypertensive rats; 100 mg/kg os, 4th h): 0 mm Hg
